Test results as given in US9758485B2, “Compounds for controlling arthropods” (priority 2013, dated 2017).

Legend:
[1] = system: Musca domestica; assay: Musca domestica test; assay type: in vivo; details: application rate 100 ppm; adult houseflies; kill after 2 days
Experimental: (§1) Solvent: dimethyl sulphoxide
To produce an appropriate active ingredient formulation, 10 mg of active ingredient are mixed with 0.5 ml of dimethyl sulphoxide, and the concentrate is diluted with water to the desired concentration.
Vessels containing a sponge treated with sugar solution and the active ingredient formulation of the desired concentration are populated with 10 adult houseflies (Musca domestica).
After 2 days, the kill in % is determined. 100% means that all of the flies have been killed; 0% means that none of the flies have been killed.

[2] = system: Lucilia cuprina; assay: Lucilia cuprina test; assay type: in vivo; details: application rate 100 ppm; L1 larvae in minced horsemeat; kill after 2 days
Outline: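 Mortality (%) of first-instar blowfly larvae, about 20 per vessel, recorded 2 days after exposure to compound-treated minced horsemeat. Compound dissolved in dimethyl sulphoxide, then water-diluted to the desired concentration.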

[3] = system: Ctenocephalides felis; assay: Ctenocephalides felis - in vitro contact tests with adult cat fleas; assay type: in vivo; details: application rate 5 μg/cm^2 (=500 g/ha), after 48 h (dead or moribund)
Experimental: Ctenocephalides felis—In Vitro Contact Tests with Adult Cat Fleas
For the coating of the test tubes, 9 mg of active ingredient are first dissolved in 1 ml of acetone p.a. and then diluted to the desired concentration with acetone p.a. 250 μl of the solution are distributed homogeneously on the inner walls and base of a 25 ml test tube by turning and rocking on an orbital shaker (rocking rotation at 30 rpm for 2 h). With 900 ppm active ingredient solution and internal surface area 44.7 cm^2, given homogeneous distribution, an area-based dose of 5 μg/cm^2 is achieved.
After the solvent has evaporated off, the tubes are populated with 5-10 adult cat fleas (Ctenocephalides felis), sealed with a perforated plastic lid and incubated in a horizontal position at room temperature and ambient humidity. After 48 h, efficacy is determined. To this end, the test tubes are stood upright and the fleas are knocked to the base of the tube. Fleas which remain motionless at the base or move in an uncoordinated manner are considered to be dead or moribund.
100% efficacy means that all the fleas were dead or moribund. 0% efficacy means that no fleas were harmed.

[4] = system: Boophilus microplus; assay: Boophilus microplus - injection test; assay type: in vivo; details: application rate 20 μg/animal; injected into engorged adult female ticks; laying of fertile eggs, after 7 days
Outline: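 Engorged adult female Boophilus microplus ticks (5 per dose) each received a 1 μl abdominal injection of compound in DMSO and were held in a climate-controlled room. Efficacy was scored after 7 days from fertile egg laying, with unclear eggs kept until hatching (~42 days); 100% means no fertile eggs.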

[5] = system: Ctenocephalides felis; assay: Ctenocephalides felis - oral test; assay type: in vivo; details: application rate 100 ppm in citrated cattle blood; adult fleas; kill after 2 days
Outline: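 DMSO stock, diluted in citrated cattle blood; ~20 unfed adult fleas feed through parafilm; % kill read at day 2 (0% = none killed).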

[6] = logP determination by HPLC on a reversed-phase column (C18), EEC Directive 79/831 Annex V.A8; assay type: physicochemical; details: for logP: HPLC, reversed-phase C18, acetonitrile/water with formic acid, 55° C.; for log P: HPLC-MS, reversed-phase column (C18); for logP^a): HPLC-MS method a), Table I-T3
[7] = system: Boophilus microplus Parkhurst strain, SP-resistant; assay: Boophilus microplus - dip test; assay type: in vivo; details: application rate 100 ppm; dip of engorged adult female ticks; laying of fertile eggs, after 7 days
Experimental: Boophilus microplus—Dip Test
Test animals: cattle ticks (Boophilus microplus) Parkhurst strain, SP-resistant
as §1
10 mg of active ingredient are dissolved in 0.5 ml of dimethyl sulphoxide. For the purpose of producing a suitable formulation, the active ingredient solution is diluted with water to the concentration desired in each case.
This active ingredient formulation is pipetted into tubes. 8-10 adult engorged female cattle ticks (Boophilus microplus) are transferred into a further tube with holes. The tube is immersed into the active ingredient formulation, and all the ticks are completely wetted. After the liquid has run out, the ticks are transferred on filter discs into plastic dishes and stored in a climate-controlled room.
Efficacy is assessed after 7 days by laying of fertile eggs. Eggs which are not visibly fertile are stored in a climate-controlled cabinet until the larvae hatch after about 42 days. An efficacy of 100% means that none of the ticks has laid any fertile eggs; 0% means that all the eggs are fertile.

| logP [6] | Compound | efficacy [1] | efficacy [2] | efficacy [3] | efficacy [4] | efficacy [5] | log P [6] | efficacy [7] | logP^a) [6] |
| --- | --- | --- | --- | --- | --- | --- | --- | --- | --- |
| 5 | Cc1cc(C(F)(C(F)(F)F)C(F)(F)F)cc(C)c1-c1cc(-c2ccc(Cl)c(C(=O)NCC(F)(F)F)c2)on1 [I-T22-3] | 100% | 100% | 100% | 100% | 100% |  |  |  |
|  | Cc1ncc(-c2cnn(-c3c(Cl)cc(C(F)(C(F)(F)F)C(F)(F)F)cc3C(F)(F)F)c2)cc1C(=O)N(C)C1CC1 [I-T3-130] | 100% | 100% | 100% | 100% | 100% | 3.8 | 100% |  |
|  | Cc1cc(C(F)(C(F)(F)F)C(F)(F)F)cc(C)c1-n1cc(-c2cccc(C(=O)NC3CC3)c2)cn1 [I-T3-29] | 100% | 100% | 100% | 100% | 100% |  |  | 3.3 |
|  | CCc1cc(C(F)(C(F)(F)F)C(F)(F)F)ccc1-n1cc(-c2ccc(Cl)c(C(=O)NC3CC3)c2)cn1 [I-T3-39] |  | 100% |  | 100% | 100% |  | 100% | 4.6 |
|  | Cc1cc(C(F)(C(F)(F)F)C(F)(F)F)cc(C)c1-n1cc(-c2cc(C(=O)NC3(C#N)CC3)c(Cl)cc2F)cn1 [I-T3-17] |  | 100% | 100% | 100% | 95% |  |  | 4.4 |
|  | CNc1ncc(-c2cnn(-c3c(Cl)cc(C(F)(C(F)(F)F)C(F)(F)F)cc3Cl)c2)cc1C(=O)NC1CC1 [I-T3-136] | 100% | 100% | 100% | 100% | 100% | 3.5 |  |  |
|  | Cc1cc(C(F)(C(F)(F)F)C(F)(F)F)cc(C)c1-n1cc(-c2cnc(C)c(C(=O)N(C)C3(C#N)CC3)c2)cn1 [I-T3-115] | 100% | 100% | 100% | 100% | 100% | 3.8 | 100% |  |
|  | Cc1cc(C(F)(C(F)(F)F)C(F)(F)F)cc(C(F)(F)F)c1-n1cc(-c2cnc(C)c(C(=O)N(C)C3CC3)c2)cn1 [I-T3-118] | 100% | 100% | 100% | 100% | 100% | 3.8 | 100% |  |
|  | Cc1ncc(-c2cnn(-c3c(Cl)cc(C(F)(F)F)cc3Cl)c2)cc1C(=O)NC1CC1 [I-T3-127] |  | 90% | 100% | 100% | 100% | 2.5 |  |  |
|  | Cc1cc(C(F)(C(F)(F)F)C(F)(F)F)cc(C(F)(F)F)c1-n1cc(-c2ccc(Cl)c(C(=O)NC3CSC3)c2)cn1 [I-T3-85] | 100% | 100% | 100% | 100% | 100% |  |  | 4.7 |
|  | N#CC1(NC(=O)c2cc(-c3cnn(-c4c(Cl)cc(OC(F)(F)F)cc4Cl)c3)ccc2Cl)CC1 [I-T3-87] | 100% | 100% | 100% | 100% | 100% |  |  | 3.6 |
|  | Cc1ncc(-c2cnn(-c3c(Cl)cc(C(F)(F)F)cc3Cl)c2)cc1C(=O)NC1(C#N)CC1 [I-T3-129] | 80% |  | 100% | 100% | 100% | 2.6 |  |  |
|  | Cc1cc(C(F)(C(F)(F)F)C(F)(F)F)cc(C)c1-n1cc(-c2cccc(C(=O)NC3(C#N)CC3)c2)cn1 [I-T3-30] | 90% | 100% | 100% | 100% | 100% |  |  | 3.2 |
|  | CN(C(=O)c1cc(-c2cnn(-c3c(Cl)cc(C(F)(F)F)cc3Cl)c2)cnc1Cl)C1CC1 [I-T3-99] | 90% | 100% | 100% | 100% | 100% | 3.5 | 90% |  |
|  | Cc1cc(C(F)(C(F)(F)F)C(F)(F)F)cc(C)c1-n1cc(-c2cccc(C(=O)NC3CC3)c2F)cn1 [I-T3-9] |  | 100% | 100% | 100% | 100% |  |  | 4.3 |
|  | CCN(C(=O)c1cc(-c2cnn(-c3c(Cl)cc(C(F)(F)F)cc3Cl)c2)cnc1Cl)C1CC1 [I-T3-145] | 90% | 100% | 100% | 100% | 100% | 3.8 |  |  |
|  | Cc1cc(C(F)(C(F)(F)F)C(F)(F)F)cc(C)c1-n1cc(-c2cnc(C)c(C(=O)N(C)C3CC3)c2)cn1 [I-T3-120] | 100% | 100% | 100% | 100% | 100% | 3.6 | 100% |  |
| 4.8 | N#CC1(NC(=O)c2cc(-c3cc(-c4c(Cl)cc(C(F)(C(F)(F)F)C(F)(F)F)cc4Cl)on3)ccc2Cl)CC1 [I-T23-2] | 100% | 100% | 100% | 100% | 100% |  |  |  |
|  | Cc1cc(C(F)(C(F)(F)F)C(F)(F)F)cc(C)c1-n1cc(-c2cncc(C(=O)NC3CC3)c2)cn1 [I-T3-7] | 80% | 100% | 100% | 100% | 100% |  |  | 3.4 |
|  | O=C(NC1CC1)c1cc(-c2cnn(-c3c(Cl)cc(C(F)(C(F)(F)F)C(F)(F)F)cc3Cl)c2)cnc1NC1CC1 [I-T3-137] | 100% | 80% | 100% | 100% | 100% | 3.4 |  |  |
|  | Cc1cc(C(F)(C(F)(F)F)C(F)(F)F)cc(C(F)(F)F)c1-n1cc(-c2ccc(Cl)c(C(=O)NCC(F)(F)F)c2)cn1 [I-T3-84] | 100% | 100% | 100% | 100% | 100% |  |  | 4.7 |
|  | Cc1ncc(-c2cnn(-c3c(Cl)cc(C(F)(C(F)(F)F)C(F)(F)F)cc3Cl)c2)cc1C(=O)N(C)C1CC1 [I-T3-133] | 100% | 100% | 100% | 100% | 100% | 3.7 | 100% |  |
|  | O=C(NC1CC1)c1cc(-c2cnn(-c3ccc(C(F)(C(F)(F)F)C(F)(F)F)cc3Cl)c2)ccc1Cl [I-T3-31] | 100% | 100% | 100% | 100% | 100% |  |  | 4.3 |
|  | CN(C(=O)c1cc(-c2cnn(-c3c(Cl)cc(C(F)(C(F)(F)F)C(F)(F)F)cc3C(F)(F)F)c2)cnc1Cl)C1CC1 [I-T3-113] | 100% | 100% | 100% | 100% | 100% | 4.0 | 100% |  |

| Compound | logP [6] | efficacy [1] | efficacy [2] | efficacy [3] | efficacy [4] | efficacy [5] | log P [6] | efficacy [7] | logP^a) [6] |
| --- | --- | --- | --- | --- | --- | --- | --- | --- | --- |
| Cc1cc(C(F)(C(F)(F)F)C(F)(F)F)cc(C)c1-n1ccc(-c2ccc(Cl)c(C(=O)NC3CC3)c2)c1 [I-T46-2] | 5.0 |  | 100% | 100% | 100% | 100% |  |  |  |
